# What was measured:
# Trypanosoma cruzi = assay: microbe, parasite or virus in culture; type: functional, organism-based, Tulahuen C4 (LacZ); conditions: Trypanosoma cruzi, Tulahuen C4 (LacZ), 96 h
# Description: DNDI: Chagas in Vitro, 96 hour
# cells [1] = type: functional, cell-based; conditions: Rattus norvegicus, L6, 72 h
# Description: DNDI: Cytotoxicity in Vitro, 72 hour, in rat skeletal myoblast cells
# cells [2] = type: functional, cell-based; conditions: Mus musculus, NMRI, BalbC or CD1 mice, Macrophage, 96 h
# Description: DNDI: Cytotoxicity in Vitro, 96 hour, in mouse macrophages (infected-amastigotes)
# [3] = test system: Trypanosoma brucei rhodesiense; assay: microbe, parasite or virus in culture; type: functional, organism-based, STIB 900; conditions: Trypanosoma brucei, STIB 900, 72 h
# Description: DNDI: HAT in Vitro, 72 hour
# Leishmania donovani [4] = assay: microbe, parasite or virus in culture; type: functional, organism-based, MHOM/ET/67/L82; conditions: Leishmania donovani, MHOM/ET/67/L82, 96 h
# Description: DNDI: Leish (macro) in Vitro, 96 hour
# Plasmodium falciparum = assay: microbe, parasite or virus in culture; type: functional, organism-based, K1; conditions: Plasmodium falciparum, K1, 72 h
# Description: DNDI: Malaria in Vitro, 72 hour
# Leishmania donovani [5] = assay: microbe, parasite or virus in culture; type: functional, organism-based, MHOM/ET/67/L82; conditions: Leishmania donovani, MHOM/ET/67/L82, 72 h
# Description: DNDI: Leish (axenic) in Vitro, 72 hour
SMILES,IC50 (Trypanosoma cruzi),IC50 (cells [1]),IC50 (cells [2]),IC50 [3],IC50 (Leishmania donovani [4]),IC50 (Plasmodium falciparum),IC50 (Leishmania donovani [5])
Nc1nc(N)c2nc(-c3ccccc3)c(N)nc2n1,22.7 µM,8.53 µM,> 11.8 µM,21.7 µM,> 11.8 µM,17.2 µM,–
CN/C(=N\CCSCc1nc[nH]c1C)NC#N [CIMETIDINE],–,302 µM,> 119 µM,> 396 µM,> 119 µM,29.2 µM,> 396 µM
CN1CCC(=C2c3ccccc3CC(=O)c3sccc32)CC1 [KETOTIFEN],–,147 µM,> 97 µM,15.2 µM,> 97 µM,0.75 µM,> 291 µM
Cc1cn([C@H]2C[C@H](N=[N+]=[N-])[C@@H](CO)O2)c(=O)[nH]c1=O [ZIDOVUDINE],–,207 µM,> 112 µM,–,> 112 µM,–,> 374 µM
Nc1nc2c(ncn2COC(CO)CO)c(=O)[nH]1 [GANCICLOVIR],–,179 µM,> 118 µM,–,> 118 µM,> 196 µM,> 392 µM
OC(Cn1cncn1)(Cn1cncn1)c1ccc(F)cc1F [FLUCONAZOLE],9.96 µM,> 294 µM,> 98 µM,–,> 98 µM,–,–
Clc1ccc(C(OCCN2CCCCC2)c2ccccc2)cc1 (configuration not stated) [CLOPERASTINE],9.46 µM,43.4 µM,90.9 µM,4.91 µM,> 30.3 µM,0.87 µM,–
CCCSc1ccc2[nH]c(NC(=O)OC)nc2c1 [ALBENDAZOLE],12.3 µM,0.41 µM,11.3 µM,14.7 µM,> 3.77 µM,–,> 113 µM
NC12CC3CC(CC(C3)C1)C2 [AMANTADINE],–,215 µM,> 198 µM,52.8 µM,> 198 µM,5.67 µM,> 595 µM
O=C1CN(/N=C/c2ccc([N+](=O)[O-])o2)C(=O)N1 [NITROFURANTOIN],4.35 µM,90.3 µM,125 µM,0.5 µM,> 41.8 µM,–,2.12 µM
CSc1ccc2c(c1)N(CC[C@H]1CCCCN1C)c1ccccc1S2,–,> 243 µM,> 81 µM,–,–,–,–
O=C(O)COCCN1CCN(C(c2ccccc2)c2ccc(Cl)cc2)CC1 (configuration not stated) [CETIRIZINE],–,149 µM,> 70.5 µM,99.5 µM,> 70.5 µM,20 µM,–
Cc1nc2ccccn2c(=O)c1CCN1CCC(C(=O)c2ccc(F)cc2)CC1 [PIRENPERONE],–,232 µM,> 76.2 µM,30 µM,> 76.2 µM,4.35 µM,–
CC(=O)OCC(CCn1cnc2cnc(N)nc21)COC(C)=O [FAMCICLOVIR],–,180 µM,> 93.4 µM,–,> 93.4 µM,> 156 µM,> 311 µM
CC(C)CN(C[C@@H](O)[C@H](Cc1ccccc1)NC(=O)O[C@H]1CO[C@H]2OCC[C@H]21)S(=O)(=O)c1ccc(N)cc1,92.2 µM,–,–,31.4 µM,> 54.8 µM,46.9 µM,–
CCN(CC)CCOc1ccc(/C(=C(/Cl)c2ccccc2)c2ccccc2)cc1 [ENCLOMIPHENE],–,13.1 µM,24.6 µM,–,–,–,–
Cc1oncc1C(=O)Nc1ccc(C(F)(F)F)cc1 [LEFLUNOMIDE],–,124 µM,> 111 µM,–,> 111 µM,> 18.5 µM,21.8 µM
Clc1ccc2c(c1)C(N1CCNCC1)=Nc1ccccc1O2 [AMOXAPINE],–,16.2 µM,31.9 µM,–,–,–,–
OCCN1CCN(CCCN2c3ccccc3Sc3ccc(C(F)(F)F)cc32)CC1 [FLUPHENAZINE],–,11.5 µM,22.9 µM,–,–,–,–

SMILES,IC50 (Trypanosoma cruzi),IC50 (cells [1]),IC50 (cells [2]),IC50 [3],IC50 (Leishmania donovani [4]),IC50 (Plasmodium falciparum),IC50 (Leishmania donovani [5])
NC(=O)c1cnccn1 [PYRAZINAMIDE],–,458 µM,> 244 µM,> 812 µM,> 244 µM,–,> 812 µM
CNCC[C@H](Oc1ccc(C(F)(F)F)cc1)c1ccccc1,–,15 µM,32.3 µM,–,–,–,–
Nc1ccc(S(=O)(=O)Nc2ncccn2)cc1 [SULFADIAZINE],24.9 µM,20.6 µM,40.1 µM,18.4 µM,> 12 µM,1.44 µM,–
C[C@H](N)C12CC3CC(CC(C3)C1)C2,–,311 µM,> 167 µM,13.8 µM,> 167 µM,0.97 µM,–
Cn1c([N+](=O)[O-])cnc1N1CCN(S(C)(=O)=O)C1=O [SATRANIDAZOLE],19.1 µM,> 311 µM,> 104 µM,18.7 µM,> 104 µM,–,10.4 µM
C[C@@H](Cc1cccc(C(F)(F)F)c1)NCCOC(=O)c1ccccc1,73.7 µM,49.1 µM,> 85.4 µM,21.1 µM,54.4 µM,6.52 µM,–
Nc1nc(O)c2ncn(CCC(CO)CO)c2n1 [PENCICLOVIR],–,220 µM,> 118 µM,> 395 µM,> 118 µM,–,> 395 µM
CCN(CC)CCCC(C)Nc1ccnc2cc(Cl)ccc12 (configuration not stated) [CHLOROQUINE],99.2 µM,50.6 µM,> 58.9 µM,3.81 µM,> 58.9 µM,–,> 196 µM
CN(C)CCCN1c2ccccc2CCc2ccc(Cl)cc21 [CLOMIPRAMINE],–,19.8 µM,31.8 µM,–,–,–,–
Nc1ccc(S(=O)(=O)c2ccc(N)cc2)cc1 [DAPSONE],–,204 µM,> 121 µM,–,> 121 µM,–,> 403 µM
Cc1cn([C@H]2C=C[C@@H](CO)O2)c(=O)[nH]c1=O [STAVUDINE],–,266 µM,> 134 µM,–,> 134 µM,–,> 446 µM
CC(=O)N1CCN(c2ccc(OCC3COC(Cn4ccnc4)(c4ccc(Cl)cc4Cl)O3)cc2)CC1 (configuration not stated) [KETOCONAZOLE],0.27 µM,51 µM,–,33.1 µM,> 18.8 µM,–,38.8 µM
CCn1cc(C(=O)O)c(=O)c2cc(F)c(N3CCNCC3)nc21 [ENOXACIN],–,25 µM,> 93.7 µM,–,> 93.7 µM,76.8 µM,> 312 µM
CCc1nc(N)nc(N)c1-c1ccc(Cl)cc1 [PYRIMETHAMINE],5.71 µM,2.51 µM,> 12.1 µM,6.75 µM,> 12.1 µM,–,–
O=C(O)c1nn(Cc2ccc(Cl)cc2Cl)c2ccccc12 [LONIDAMINE],–,273 µM,> 93.4 µM,–,> 93.4 µM,> 15.6 µM,8.66 µM
Cc1ncc([N+](=O)[O-])n1CC(C)O (configuration not stated) [SECNIDAZOLE],> 161 µM,> 483 µM,> 161 µM,28.7 µM,> 161 µM,–,> 161 µM
CC(C)CN(C[C@@H](O)[C@H](Cc1ccccc1)NC(=O)O[C@H]1CCOC1)S(=O)(=O)c1ccc(N)cc1,–,160 µM,> 59.3 µM,28.5 µM,> 59.3 µM,15.2 µM,–
Cc1ncc([N+](=O)[O-])n1CCO [METRONIDAZOLE],–,339 µM,> 175 µM,–,> 175 µM,–,–
Cc1ncc([N+](=O)[O-])n1CC(O)CCl (configuration not stated) [ORNIDAZOLE],–,> 408 µM,> 136 µM,25.9 µM,> 136 µM,–,> 136 µM
